Results published in patent publication US10285961B2, “Organic acids as agents to dissolve calcium minerals in pathological calcification and uses thereof” (University of Houston System, priority 2014, dated 2019).
Entries after “also recorded” stand apart in the source; their conditions may differ.

Tests used:
[1] = Calcium ion selective electrode (ISE) measurement of COM crystallization kinetics; conditions: synthetic versus extracted hydroxycitrate, slope of free calcium ion depletion relative to control
Method: A calcium ion selective electrode (ISE, ThermoScientific with Orion 9720BNWP Ionplus® electrode) was used to measure the effect of organic growth modifiers (OGMs) on the kinetics of COM crystallization which measures the concentration of free calcium ions in solution. Samples were prepared in the similar manner as COM bulk crystallization. Final solution composition was set to be 0.5 mM CaCl2: 0.5 mM Na2C2O4: 150 mM NaCl and the measurements were performed at room temperature. During ISE measurements, the stir rate was adjusted to 1200 rpm to minimize the induction time for nucleation. OGM efficacy was measured by calculating the temporal depletion of calcium ion concentration (ppm range). The data was normalized by subtracting the concentration of the initial time point from each time point. The rate of depletion was calculated by measuring the initial slope of the crystal growth curve. The efficacy of synthetic and extracted hydroxycitrate was assessed using the percent inhibition, which was calculated by comparing the reduced slopes for each OGM relative to that of the control (i.e., absence of OGM). Prior to ISE measurements, the electrode was calibrated using a standard calcium solution (0.1 M, Orion Ion Plus), which was diluted with deionized water to three concentrations: 10^−4, 10^−3 and 10^−2 M. The ionic strength of each solution was adjusted using a standard solution (ISA, Thermo Scientific), which was added in a 1:50 volume ratio of ISA-to-standard.
Additionally, the inhibitory efficacy of synthetic and extracted HCA was observed. An ion selective electrode measures the free calcium ion in the solution in the course of experiments. The efficacy of both HCA molecules was measured by calculating the temporal depletion of free calcium ion concentration in COM growth solutions. The data was normalized by subtracting the concentration of the initial time point from all time points. The rate of depletion was calculated by measuring the initial slope of the crystal growth curve. The efficacy of the synthetic and extracted HCA was assessed using the percent inhibition, which was calculated by comparing the slopes for each molecule relative to that of the control (i.e., in the absence of HCA).

[2] = Upper limit of metastability of urine from patients with kidney stones; design: species or system human; conditions: for inhibition: calcium oxalate molar product at the point of crystallization: 8 urine samples, 37° C. for 4 hours
Method: The crystal inhibition activity of hydroxycitrate in human urine was determined using measurement of upper limit of metastability. For this experiment, 8 urine samples from patients with kidney stones were used. The urine was either spiked with a known amount of an inhibitor or spiked with saline as control. Ten aliquots of each urine sample were added to the wells of a microtiter plate and increasing amounts of oxalate was added. The plates were incubated at 37° C. for 4 hours and then turbidity was measured using an enzyme-linked immunosorbent assay (ELISA) plate reader. The well with the lowest amount of oxalate in which increased turbidity is noted is considered the crystallization point. Multiplying the calcium concentration of the urine and the oxalate concentration (original oxalate plus the amount of oxalate added) at the point of crystallization provides a rough measure of saturation at the point of crystallization.
The upper limit of metastability assay was also used to compare the inhibitory activity of hydroxycitrate to that of other tricarboxyllic acids: citrate, isocitrate, and tricarballylate. […] Each of tricarboxyllic acids was added to urine samples from stone forming patients to provide a final concentration of 2 mM. The data are expressed as the increase of the calcium oxalate molar product at crystallization compared to the control urine sample without any inhibitor added.

[3] = In situ AFM of growth hillocks on the (010) face of COM crystals (step velocity)
Method: (§1) Atomic force microscopy (AFM, Bruker Multimode 4) was used to study the COM crystal surface topography at a nanometer length scale. Samples were mounted on a disk covered with a thin layer of thermally curable epoxy (MasterBond EP21AOLV). The epoxy was partially cured in an oven for ca. 20 min at 60° C. prior to transferring the crystals obtained from bulk crystallization. The crystals were immobilized on the epoxy with the or [010] direction oriented normal to the specimen surface by placing the sample in an oven at 60° C. for two to three hours to completely cure the epoxy. The cantilevers used in this study were silicon nitride probes with gold reflex coating and a spring constant of 0.15 N/m (Olympus, TR800PSA). AFM was also employed to observe the kinetics of crystal growth in supersaturated calcium oxalate solutions by monitoring the velocity of step advancement on the (010) surface and (100) surface of COM crystals in real time. The experiment was designed to assess the effects of a range of concentration of hydroxycitrate on step growth using a fluid cell (Bruker, MTFML) to produce an environment that mimics in situ crystallization. The fluid cell had two ports for inlet and outlet flow to maintain constant supersaturation during AFM measurements. A silicon O-ring was used to ensure no liquid leakage would occur while solutions were being continuously replenished. A dual syringe pump (CHEMYX, Fusion 200) was used to flow the solutions into the fluid cell.
Hydroxycitrate has four stereoisomers, […], (2S,3R), (2S,3S), and (2R,3R) (FIG. 1). In order to investigate the interaction between hydroxycitrate and COM crystal surface at a molecular level, atomic force microscopy was utilized. The growth of hillocks by screw dislocation on the (010) face of COM crystals were measured in real time in the absence and in the presence of 0.1 μg/mL HCA (FIGS. 2A-2F). Growth hillocks on (010) face are bounded by {021} and {12-1} faces. […] The temporal advancement of steps (i.e., step velocity) of the growth hillock in the absence and in the presence of a wide range of concentration of HCA was measured (FIGS. 3A-3B). […] These phenomena are conventional modes of crystal growth inhibition. […] This phenomenon confirms the role of HCA as a dissolving agent.

[4] = In situ AFM of growth hillocks on the (100) surface of COM crystals
Method: as §1, with “The experiment was designed to assess the effects of a range of concentration of hydroxycitrate on step growth using a fluid cell (Bruker, MTFML) to produce an environment that mimics in situ crystallization. The fluid cell had two ports for inlet and outlet flow to maintain constant supersaturation during AFM measurements. A silicon O-ring was used to ensure no liquid leakage would occur while solutions were being continuously replenished. A dual syringe pump (CHEMYX, Fusion 200) was used to flow the solutions into the fluid cell.” left out
The interaction between hydroxycitrate and the (100) surface of COM crystals was also observed using atomic force microscopy. The growth of hillocks by screw dislocation on the (100) surface of COM crystals were measured in real time in the absence and in the presence of 0.25 μg/mL HCA (FIGS. 4A-4F). […]

[5] = Exposure of fully grown COM crystals to HCA: optical microscopy and AFM surface roughness; conditions: HCA (100 μg/mL) introduced at the end of crystallization period (3 days); optical micrographs
Method: Crystallization was carried out in a 20-mL glass vial by dissolving NaCl in deionized water then adding 0.7 mL of 10 mM CaCl2 stock solution which was prepared in advance. The sample vial was place in an oven set to 60° C. for one hour to ensure the crystallization was performed at 60° C. Subsequently 0.7 mL of […] Na2C2O4 stock solution was added to the solution dropwise while the solution was stirred at 400 rpm. To investigate the effect of hydroxycitrate […] COM crystallization, prepared hydroxycitrate stock solution was added to the solution dropwise at the end of three day crystallization period. A clean glass slide (ca. 1.3×1.3 cm^2) was placed at the bottom of the glass vial to readily collect the crystals prior to placing the vial in the oven. Final solution composition was set to be 0.7 mM CaCl2: 0.7 mM Na2C2O4: 150 mM NaCl and the amount of deionized water was adjusted to set the final volume to 10 mL. Crystallization was performed at 60° C. for three days without agitation. The glass slide was removed from the solution and dried at room temperature prior to analysis.
Morphology of COM crystals prepared in the absence and in the presence of OGMs were assessed and compared under optical microscope (Leica DM2500-M). Images were obtained in brightfield using reflectance. […]

[6] = design: species or system human; conditions: in vivo
Method: In order for hydroxycitrate to have a direct effect on calcium oxalate stone formation, it must be excreted in the urine. As preliminary evidence of renal excretion in humans, over the counter hydroxycitrate supplements (trade name Super CitraMax) was administered to a normal healthy subject at a dose of 4.3 mmoles of hydroxycitrate two times a day (total daily dose of 8.6 mmoles) for three days. The standard dose recommended by the manufacturer is 12.9 mmoles per day. On the third day a 24 hour urine collection was performed. Hydroxycitrate excretion was measured using ion chromatography. […] Peak 1 is urine citrate, peak 2 is hydroxycitrate. Using a standard curve created using a high purity hydroxycitrate standard, hydroxycitrate excretion was calculated to be 1.28 mmoles per day. Thus, approximately 15% of the oral hydroxycitrate dose was excreted in the urine.

[7] = 2 mM final concentration, comparison of tricarboxylic acids

For “(−)-Hydroxycitric acid calcium salt [extracted HCA]”, the “efficacy (percent inhibition) on COM crystallization” value (“efficacy (percent inhibition)” below) ([1]; calcium salt) was “comparable” and the “efficacy (percent inhibition)” value ([1]; listed as cHCA, calcium salt) was “comparable effect”.

With `O.O=C([O-])CC(O)(C(=O)[O-])C(O)C(=O)[O-].[K+].[K+].[K+]` (stereo not shown) [synthetic HCA, potassium hydroxycitrate tribasic monohydrate] the “efficacy (percent inhibition)” value ([1]; listed as sHCA, monohydrate) was “comparable effect” and the “efficacy (percent inhibition)” value ([1]; monohydrate) was “comparable”.

With `O=C(O)CC(CC(=O)O)C(=O)O` [tricarballylate, reference compound] the “difference of inhibition versus hydroxycitrate” value [2, 7] was “reached statistical significance”.

With `O=C(O)CC(O)(C(=O)O)C(O)C(=O)O` (stereo not shown) [HCA, hydroxycitrate] the “surface features of COM crystal” value ([3]; 0.1 μg/mL HCA) was “signs of dissolution; also recorded: dissolves the COM crystal surface”, the “step velocity of growth hillocks” value ([3]; <021> and <12-1> directions, low concentration of HCA (<0.06 μg/mL)) was “decrease; also recorded: slightly decreases” and the “step velocity of growth hillocks” value ([3]; high concentration of HCA (>0.15 μg/mL)) was “nearly zero; also recorded: ceases to zero”. For the same compound, the “step velocity of growth hillocks” value ([3]; intermediate concentration (0.06 μg/mL<CHCA<0.15 μg/mL)) was “negative velocity; also recorded: negative values”, the “surface features of COM crystal” value ([4]; 0.1 μg/mL HCA as printed) was “dissolves the COM crystal surface” and the “surface features of COM crystal” value ([4]; 0.25 μg/mL HCA) was “etch pits start to form at step edges; also recorded: rapid formation of etch pits at the edge of steps”. For the same compound, the overall crystal morphology [5] was “remained the same as that of the control; also recorded: maintained the same overall morphology”, the “fraction of the oral hydroxycitrate dose excreted in the urine” value [6] was “approximately 15%” and the “inhibition: calcium oxalate molar product at the point of crystallization” value ([2]; 1 mM final concentration) was “greater inhibition than the control urine”. For the same compound, the “inhibition: calcium oxalate molar product at the point of crystallization” value ([2]; 2 mM final concentration) was “greater inhibition than the 1 mM hydroxycitrate” and the “increase of the calcium oxalate molar product at crystallization compared to the control urine” value [2, 7] was “higher levels of inhibition compared to the other inhibitors”.
